Assay results: patent US20250059208A1, “KRAS MODULATING COMPOUNDS” (priority 2023, published 2025)
pEC50, pIC50: −log10 of the molar value. Where two headings read alike, the source gives them in different places.

What was measured:
GDP-loaded KRAS-G12C = GDP-loaded KRAS-G12C (Homo sapiens, UniProt P01116, G12C); experiment: KRAS (GDP) biochemical TR-FRET probe displacement assay, G12C; type: binding; conditions: 2 hours at room temperature
Experimental: (§1) • Compounds were tested for binding to GDP-loaded wild-type KRAS (WT), KRAS-G12C, KRAS-G12D, and KRAS-G12V in a 384-well assay format using a TR-FRET probe displacement assay in buffer consisting of 50 mM Hepes (pH 7.4), 150 mM NaCl. 5 mM MgCl2 and 0.005% Tween-20. 0.03 nM KRAS was used in this assay with 0.02 nM Eu-streptavidin and 12 nM Cy-5 labelled probe. Compounds were serially diluted (1:3) in DMSO. The LabCyte ECHO Acoustic dispenser was used to pre-spot the assay plates (384-well Non-Binding Surface plates, Corning, Catalog #3824) with 50 nL of compound. 5 μL of 2× enzyme concentration was added to the pre-spotted plates and incubated for 30 minutes before adding 5 μL of 2× concentration of Eu-streptavidin and Cy-5 labelled probe (10 μL final reaction volume). The plates were incubated at room temperature for 2 hours before measuring TR-FRET ratio (665 nm/615 nm) on the Envision multimode plate reader. The ratios were normalized to a positive (saturating concentration of known inhibitor) and negative (DMSO) control and plotted against the log of compound concentration. […]

[1] = target: GDP-loaded wild-type KRAS (WT) (Homo sapiens, UniProt P01116); experiment: KRAS (GDP) biochemical TR-FRET probe displacement assay, WT; type: binding; conditions: 2 hours at room temperature
Chain of GDP-loaded wild-type KRAS (WT) (P01116 1-188 isoform P01116-2): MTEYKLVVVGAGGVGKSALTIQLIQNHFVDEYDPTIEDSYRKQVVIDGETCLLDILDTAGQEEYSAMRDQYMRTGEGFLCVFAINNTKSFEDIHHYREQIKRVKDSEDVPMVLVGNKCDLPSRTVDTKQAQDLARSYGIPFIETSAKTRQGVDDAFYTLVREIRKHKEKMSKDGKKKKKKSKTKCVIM
Experimental: as §1

[2] = test system: cellular pERK in Kuramochi (WT KRAS) cell-line; experiment: Cell based pERK assay, Kuramochi; conditions: Kuramochi (WT KRAS) cells, 2 hours compound incubation, HTRF Phospho-ERK1/2
Experimental: (§2) Compounds were tested in a 384-well assay format for their ability to inhibit cellular pERK in Kuramochi (WT KRAS), MIA-PaCa-2 (KRAS-G12C), ASPC-1 (KRAS G12D), and NCI-H441 (KRAS-G12V) cell-lines. Compounds were serially diluted (1:3) in DMSO. On day −1, 80 μL of cells were plated per well in the 384 well tissue-culture plates (Greiner: Cat #781080) to seed 5000 cells per wells of AsPC-1 or 7500 cells of MIA-PaCa-2, NCI-H441, and Kuramochi cell lines in RPMI (Corning: Cat #10-040-CM) with 10% fetal bovine serum (FBS) (HyClone: Cat #SH30071-03) and IX penicillin-streptomycin-glutamate (PSG) (Corning: Cat #30-009-C1) for […] and Kuramochi cell lines and DMEM (Corning: Cat #15-018-CM) with 10% FBS and 1×PSG for MIA-PaCa-2 cell line. The plates were then incubated overnight at 37° C. and 5% CO2. On day 0, 400 nL of compound/well was added into the cell plates and mixed 5 times by pipetting using a Beckmann Biomek FX. The cell plates were then incubated for 2 hours at 37° C. and 5% CO2. HTRF Advanced Phospho-ERK1/2 (THR202/TYR204) Detection Kits (PerkinElmer: Cat #64AERPEG) were used to prepare the lysis and detection solution according to manufacturer protocol. Following the 2 hour incubation, 70 μL of medium was aspirated from the plates and 10 μL of lysis and detection solution was added to the plates using a Biotek EL406 washer and dispenser. Plates were sealed and stored overnight at room temperature. HTRF ratio (665 nm/615 nm) was read by Envision multimode reader (PerkinElmer) the next day. The TR-FRET ratios were normalized to a positive (saturating concentration of known inhibitor) and negative (DMSO) control and plotted against the log of compound concentration.

[3] = test system: cellular pERK in ASPC-1 (KRAS G12D) cell-line; experiment: Cell based pERK assay, ASPC-1; conditions: ASPC-1 (KRAS G12D) cells, 2 hours compound incubation, HTRF Phospho-ERK1/2
Experimental: as §2

GDP-loaded KRAS-G12D = GDP-loaded KRAS-G12D (Homo sapiens, UniProt P01116, G12D); experiment: KRAS (GDP) biochemical TR-FRET probe displacement assay, G12D; type: binding; conditions: 2 hours at room temperature
Chain of GDP-loaded KRAS-G12D (P01116 1-188 isoform P01116-2 G12D): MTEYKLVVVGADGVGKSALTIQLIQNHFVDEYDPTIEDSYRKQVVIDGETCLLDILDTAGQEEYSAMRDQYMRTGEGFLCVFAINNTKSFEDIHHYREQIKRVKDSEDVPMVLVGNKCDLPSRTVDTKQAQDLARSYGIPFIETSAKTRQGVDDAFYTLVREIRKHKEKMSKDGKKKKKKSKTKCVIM
Experimental: as §1

[4] = test system: cellular pERK in MIA-PaCa-2 (KRAS-G12C) cell-line; experiment: Cell based pERK assay, MIA-PaCa-2; conditions: Homo sapiens; MIA-PaCa-2 (KRAS-G12C) cells, 2 hours compound incubation, HTRF Phospho-ERK1/2; read-out: MIAPaCa2 pERK EC50
Experimental: as §2

[5] = test system: cellular pERK in NCI-H441 (KRAS-G12V) cell-line; experiment: Cell based pERK assay, NCI-H441; conditions: Homo sapiens; NCI-H441 (KRAS-G12V) cells, 2 hours compound incubation, HTRF Phospho-ERK1/2
Experimental: as §2

GDP-loaded KRAS-G12V = GDP-loaded KRAS-G12V (Homo sapiens, UniProt P01116, G12V); experiment: KRAS (GDP) biochemical TR-FRET probe displacement assay, G12V; type: binding; conditions: 2 hours at room temperature
Chain of GDP-loaded KRAS-G12V (P01116 1-188 isoform P01116-2 G12V): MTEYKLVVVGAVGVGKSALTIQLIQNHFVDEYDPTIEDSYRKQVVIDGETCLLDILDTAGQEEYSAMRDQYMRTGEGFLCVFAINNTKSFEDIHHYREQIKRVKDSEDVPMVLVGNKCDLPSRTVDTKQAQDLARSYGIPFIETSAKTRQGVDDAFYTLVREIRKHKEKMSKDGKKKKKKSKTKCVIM
Experimental: as §1

Chain of GDP-loaded KRAS-G12C (P01116 1-188 isoform P01116-2 G12C): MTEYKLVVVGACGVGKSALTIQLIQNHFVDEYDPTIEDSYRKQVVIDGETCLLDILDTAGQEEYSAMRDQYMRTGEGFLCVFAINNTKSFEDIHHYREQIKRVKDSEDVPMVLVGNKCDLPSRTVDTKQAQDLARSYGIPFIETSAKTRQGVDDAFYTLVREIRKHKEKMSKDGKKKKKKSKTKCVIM

SMILES | pIC50 (GDP-loaded KRAS-G12C) | pIC50 [1] | pEC50 ([2]; 2 h) | pEC50 ([3]; Homo sapiens, ASPC1, 2 h) | pIC50 (GDP-loaded KRAS-G12D) | pEC50 [4] | pEC50 [5] | pIC50 (GDP-loaded KRAS-G12V) | pEC50 [2] | pEC50 ([3]; read-out: AsPC1 pERK EC50)
Cc1cc(N)nc(-c2c(Cl)cc3c(N4CC5(F)CCC(F)(C4)N5)nc(OC[C@@]45CCCN4C[C@H](F)C5)nc3c2F)c1C(F)(F)F [Example 7-1] | < 7.00 | < 7.05 | 7.32 | < 6.00 | < 7.00 | 6.63 | 6.17 | < 7.00 | – | –
N#Cc1c(N)sc2c(F)ccc(-c3c(Cl)cc4c(N5CC6(F)CCC(F)(C5)N6)nc(OC[C@@]56CCCN5C[C@H](F)C6)nc4c3F)c12 (single isomer, unassigned) [Example 8-2] | 7.63 | 8.48 | – | – | 7.37 | 7.18 | 6.59 | 7.30 | 7.10 | 6.21
C#Cc1c(F)ccc2cc(O)cc(-c3c(Cl)cc4c(N5CC6(F)CCC(F)(C5)N6)nc(OC[C@@]56CCCN5C[C@H](F)C6)nc4c3F)c12 [Example 2-6] | 8.55 | 8.23 | 8.29 | 7.56 | 7.59 | 8.76 | 8.21 | 8.01 | – | –
Cc1cc(-c2c(Cl)cc3c(N4CC5(F)CCC(F)(C4)N5)nc(OC[C@@]45CCCN4C[C@H](F)C5)nc3c2F)c2cccnc2c1N [Example 2-9] | < 7.00 | < 7.00 | < 6.00 | < 6.00 | < 7.00 | < 6.00 | < 6.00 | < 7.00 | – | –
C#Cc1c(F)ccc2cc(O)cc(-c3ncc4c(N5CC6(F)CCC(F)(C5)N6)nc(OC[C@@H]5CC[C@]6(COc7cc(C(F)(F)F)ncn7)CCCN56)nc4c3F)c12 [Example 2-11] | 7.77 | 7.91 | 7.61 | 7.26 | 7.94 | 8.24 | 7.25 | 7.65 | – | –
Nc1cc2ccc(F)cc2c(-c2c(Cl)cc3c(N4CC5(F)CCC(F)(C4)N5)nc(OC[C@@]45CCCN4C[C@H](F)C5)nc3c2F)n1 [Example 7-2] | < 7.00 | < 7.00 | 6.28 | < 6.00 | < 7.00 | < 6.00 | < 6.00 | < 7.00 | – | –
Cc1cc(N)nc(-c2c(F)cc3c(N4CC5(F)CCC(F)(C4)N5)nc(OC[C@@]45CCCN4C[C@H](F)C5)nc3c2F)c1C(F)(F)F [Example 6-1, 6-(4-(1,5-difluoro-3,8-diazabicyclo[3.2.1]octan-3-yl)-6,8-difluoro-2-(((2R,7aS)-2-fluorotetrahydro-1H-pyrrolizin-7a(5H)-yl)methoxy)quinazolin-7-yl)-4-methyl-5-(trifluoromethyl)pyridin-2-amine] | < 7.00 | < 7.00 | 7.31 | < 6.00 | < 7.00 | 6.46 | 6.21 | < 7.00 | – | –
C#Cc1c(F)ccc2cc(O)cc(-c3ncc4c(N5CC6(F)CCC(F)(C5)N6)nc(OC[C@@]56CCCN5[C@H](COc5cc(C(F)(F)F)cnn5)CC6)nc4c3F)c12 [Example 2-4] | 9.57 | 9.68 | 8.25 | 7.83 | 9.44 | 9.54 | 8.01 | 9.62 | – | –
C#Cc1c(F)ccc2cc(O)cc(-c3ncc4c(N5CC6(F)CCC(F)(C5)N6)nc(OC[C@@]56CCCN5[C@H](COc5cc(C(F)(F)F)ncn5)CC6)nc4c3F)c12 [Example 2-3] | 9.40 | 9.54 | 8.59 | 8.67 | 9.26 | 9.72 | 8.68 | 9.38 | – | –
Fc1cc2c(N3CC4(F)CCC(F)(C3)N4)nc(OC[C@@]34CCCN3C[C@H](F)C4)nc2c(F)c1-c1csc2ncnc(Cl)c12 [Example 6-2] | < 7.00 | < 7.00 | < 6.00 | < 6.00 | < 7.00 | < 6.00 | < 6.00 | < 7.00 | – | –
C#Cc1c(F)c(F)cc2cc(O)cc(-c3c(F)cc4c(N5CC6(F)CCC(F)(C5)N6)nc(OCC56CCCN5CCC6)nc4c3F)c12 [Example 2-5] | 9.82 | 9.54 | 8.06 | 7.21 | 9.21 | 8.52 | 8.20 | 9.70 | – | –
C#Cc1c(F)ccc2cc(N)cc(-c3ncc4c(N5CC6(F)CCC(F)(C5)N6)nc(OCC56CCCN5CCC6)nc4c3F)c12 [Example 5-3] | 8.17 | 8.18 | 7.94 | 6.12 | 7.37 | 7.81 | 6.56 | 7.58 | – | –
C#Cc1c(F)ccc2cc(N)nc(-c3c(Cl)cc4c(N5CC6(F)CCC(F)(C5)N6)nc(OC[C@@]56CCCN5C[C@H](F)C6)nc4c3F)c12 [Example 7-5] | < 7.00 | < 7.00 | 7.66 | 6.13 | < 7.00 | 6.75 | 6.26 | < 7.00 | – | –
Cc1cc(-c2ncc3c(N4CC5(F)CCC(F)(C4)N5)nc(OC[C@@]45CCCN4C[C@H](F)C5)nc3c2F)c2cccnc2c1N [Example 2-8] | < 7.00 | < 7.00 | < 6.00 | < 6.00 | < 7.00 | < 6.00 | < 6.00 | < 7.00 | – | –
